“And” between values parts separate entries of the source, which are not always exact repeats. Identical values can stand only once.
Legend:
[1] = target: T1, Broad substrate specificity ATP-binding cassette transporter ABCG2 (Homo sapiens, UniProt Q9UNQ0); experiment: (§1) Inhibition of ABCG2 in human H460/MX20 cells assessed as potentiation of mitoxantrone induced antiproliferative activity by measuring mitoxantrone IC50 at 10 uM preincubated for 2 hrs followed by mitoxantrone addition measured after 72 hrs by MTT assay (Rvb = 6.161 +/- 0.172 microM)
T1 sequence (Q9UNQ0 whole entry): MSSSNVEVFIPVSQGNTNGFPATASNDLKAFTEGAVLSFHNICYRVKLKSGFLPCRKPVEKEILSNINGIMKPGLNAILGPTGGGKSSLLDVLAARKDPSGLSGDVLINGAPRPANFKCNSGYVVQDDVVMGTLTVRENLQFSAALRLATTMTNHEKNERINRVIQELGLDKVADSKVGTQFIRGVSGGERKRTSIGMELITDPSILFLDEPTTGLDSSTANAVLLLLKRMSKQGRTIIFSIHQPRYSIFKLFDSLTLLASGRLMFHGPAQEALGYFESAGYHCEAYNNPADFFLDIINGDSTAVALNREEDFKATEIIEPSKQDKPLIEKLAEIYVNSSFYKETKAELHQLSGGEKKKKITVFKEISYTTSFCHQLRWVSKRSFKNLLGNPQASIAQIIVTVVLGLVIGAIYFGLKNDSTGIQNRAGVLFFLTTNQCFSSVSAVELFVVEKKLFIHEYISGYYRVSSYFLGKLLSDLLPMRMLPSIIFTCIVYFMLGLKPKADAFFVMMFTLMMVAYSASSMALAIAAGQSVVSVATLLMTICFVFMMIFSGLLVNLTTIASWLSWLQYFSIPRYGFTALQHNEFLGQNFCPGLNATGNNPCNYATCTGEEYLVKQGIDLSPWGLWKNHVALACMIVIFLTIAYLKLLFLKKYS

[2] = Inhibition of ABCG2 in human H460/MX20 cells assessed as potentiation of mitoxantrone induced antiproliferative activity by measuring mitoxantrone IC50 at 3 uM preincubated for 2 hrs followed by mitoxantrone addition measured after 72 hrs by MTT assay (Rvb = 6.161 +/- 0.172 microM)
[3] = Inhibition of ABCG2 in human H460/MX20 cells assessed as potentiation of mitoxantrone induced antiproliferative activity by measuring mitoxantrone IC50 at 10 uM preincubated for 2 hrs followed by mitoxantrone addition measured after 72 hrs by MTT assay (Rvb = 6.161 +/- 0.172 microM)
[4] = Inhibition of ABCG2 in human H460/MX20 cells assessed as potentiation of mitoxantrone induced antiproliferative activity by measuring mitoxantrone IC50 at 1 uM preincubated for 2 hrs followed by mitoxantrone addition measured after 72 hrs by MTT assay (Rvb = 6.161 +/- 0.172 microM)
[5] = target: T1, Broad substrate specificity ATP-binding cassette transporter ABCG2; experiment: ChEBML_1696291; experimental: as §1
[6] = Inhibition of ABCG2 in human H460/MX20 cells assessed as potentiation of mitoxantrone induced antiproliferative activity by measuring mitoxantrone IC50 at 3 uM preincubated for 2 hrs followed by mitoxantrone addition measured after 72 hrs by MTT assay (Rvb = 6.161 +/- 0.172 microM); remark: listed apart in the source
[7] = target: T1, Broad substrate specificity ATP-binding cassette transporter ABCG2; experiment: Inhibition of ABCG2 in human H460/MX20 cells assessed as potentiation of mitoxantrone induced antiproliferative activity by measuring mitoxantrone IC50 at 3 uM preincubated for 2 hrs followed by mitoxantrone addition measured after 72 hrs by MTT assay (Rvb = 6.161 +/- 0.172 microM)

Row | SMILES | IC50 [2] | IC50 [3] [nM] | IC50 [4] [nM] | other results
1 | COc1ccc(-n2nnc(-c3ccccc3NC(=O)Nc3ccc([N+](=O)[O-])cc3)n2)cc1 | 541 nM | – | – | IC50 [1]: 331 nM
2 | CCCc1ccc(C(=O)Nc2ccccc2-c2nnn(-c3cccc(OC)c3)n2)cc1 | – | 131 | – | –
3 | COc1cccc(-n2nnc(-c3ccccc3NC(=O)Nc3ccc(NC(=O)CBr)cc3)n2)c1 | – | – | 798 | IC50 [1]: 472 nM
4 | COc1cccc(-n2nnc(-c3ccccc3NC(=O)c3ccc(N=[N+]=[N-])cc3)n2)c1 | 1500 nM | – | 1620 | –
5 | CCCc1ccc(NC(=O)c2ccccc2NC(=O)c2ccc(OC)cc2)cc1 | – | 1660 | – | –
6 | CCCc1ccc(NC(=O)c2ccccc2NC(=O)Nc2ccccc2[N+](=O)[O-])cc1 | 2560 nM | – | – | IC50 [1]: 1120 nM
7 | O=C(Nc1ccc([N+](=O)[O-])cc1)Nc1ccccc1C(=O)Nc1ccc(C(F)(F)F)cc1 | – | 452 | – | IC50 [5]: 711 nM
8 | COc1cccc(-n2nnc(-c3ccccc3NC(=O)Nc3ccccc3[N+](=O)[O-])n2)c1 | 978 nM | 882 | – | –
9 | COc1ccc2c3c([nH]c2c1)[C@H](C=C(C)C)N1C(=O)[C@@H]2CCCN2C(=O)[C@@H]1C3 [Fumitremorgin C] | 451 nM | – | 612 | –
10 | COc1ccc(-n2nnc(-c3ccccc3NC(=O)c3ccc([N+](=O)[O-])cc3)n2)cc1 | – | 378 | 587 | IC50 [6]: 535 nM
11 | COc1cccc(-n2nnc(-c3ccccc3NC(=O)Nc3ccc(NC(C)=O)cc3)n2)c1 | – | 325 | – | –
12 | CCCc1ccc(NC(=O)c2ccccc2NC(=O)Nc2cccc([N+](=O)[O-])c2)cc1 | – | – | 651 | –
13 | CCCc1ccc(NC(=O)c2ccccc2NC(=O)Nc2ccc(OC)cc2)cc1 | – | – | 3370 | IC50 [1]: 985 nM
14 | COc1cccc(-n2nnc(-c3ccccc3NC(=O)Nc3ccc(N)cc3)n2)c1 | – | 379 | 838 | –
15 | CCCc1ccc(NC(=O)c2ccccc2NC(=O)Nc2ccc([N+](=O)[O-])cc2)cc1 | 482 nM | – | 622 | –
16 | COc1cccc(-n2nnc(-c3ccccc3NC(=O)c3ccccc3[N+](=O)[O-])n2)c1 | – | – | – | IC50 [1]: 1100 nM
17 | COc1cccc(-n2nnc(-c3ccccc3NC(=O)c3ccc(NC(C)=O)cc3)n2)c1 | – | 1200 | 1360 | IC50 [6]: 1320 nM
18 | COc1cccc(-n2nnc(-c3ccccc3NC(=O)c3ccc([N+](=O)[O-])cc3)n2)c1 | – | – | 585 | –
19 | CCCc1ccc(NC(=O)c2ccccc2NC(=O)c2ccc([N+](=O)[O-])cc2)cc1 | 783 nM | – | 833 | IC50 [1]: 594 nM
20 | COc1cccc(-n2nnc(-c3ccccc3NC(=O)c3ccc(NC(=O)CBr)cc3)n2)c1 | – | 283 | – | IC50 [7]: 446 nM
21 | COc1cccc(-n2nnc(-c3ccccc3NC(=O)c3ccc(N=C=S)cc3)n2)c1 | 1050 nM and 952 nM | – | – | –
22 | COc1cccc(-n2nnc(-c3ccccc3NC(=O)Nc3ccc([N+](=O)[O-])cc3)n2)c1 | – | 403 | – | –
23 | COc1ccc(C(=O)Nc2ccccc2-c2nnn(-c3ccc(OC)cc3)n2)cc1 | 505 nM | 492 | 746 | –
24 | COc1cccc(-n2nnc(-c3ccccc3NC(=O)c3cccc([N+](=O)[O-])c3)n2)c1 | – | – | 1800 | –
25 | CCCc1ccc(NC(=O)c2ccccc2NC(=O)Nc2ccc(Br)cc2)cc1 | – | – | 2660 | IC50 [7]: 2120 nM
26 | COc1cccc(-n2nnc(-c3ccccc3NC(=O)Nc3ccc(N=[N+]=[N-])cc3)n2)c1 | – | – | 913 | –
27 | COc1cccc(-n2nnc(-c3ccccc3NC(=O)c3ccc(N)cc3)n2)c1 | – | 299 | – | IC50 [7]: 491 nM
28 | COc1cccc(-n2nnc(-c3ccccc3NC(=O)Nc3ccc(N=C=S)cc3)n2)c1 | 667 nM | – | – | –

Reference: BindingDB's records for doi:10.1016/j.bmcl.2017.09.009 (St. John'S University, 2017)
